System: Haemonchus contortus
Test: Method A: screening of compounds against Haemonchus contortus L1 larvae in microtitre plate (development to L3)
Details: 96 h, test concentration 0.01 ppm, 4 days assessment, 27° C., read-out: motility inhibition
Procedure: Method A: Screening Method to Test Activity of Compounds Against Haemonchus contortus. Twenty L1 Haemonchus contortus larvae were added to wells of a microtitre plate containing a nutrient medium and the test compound in DMSO. The microtitre plate was then held at 27° C. where the L1 larvae were allowed to develop. An analysis was conducted at 4 days to determine successful development to the L3 stage. Larvae exposed to DMSO and no test compound served as controls. Compounds numbers 3, 4, 6 and 8 gave at least 90% motility inhibition at a test concentration of 0.15 ppm at the 4 days assessment. Compounds numbers 1, 2, 5 and 7 gave at least 90% motility inhibition at a test concentration of 0.01 ppm at the 4 days assessment.

**Q.** CC(Cn1nc2c(Cl)cc(Cl)c(Cl)c2n1)(NC(=O)c1ccc(OC(F)(F)F)cc1)C(N)=S (stereo not drawn) [Compound 1, N-[1-Methyl-1-thiocarbamoyl-2-(4,5,7-trichloro-2H-benzotriazol-2-yl)-ethyl]-4-trifluoromethoxybenzamide] was tested. Which inhibition at 0.01 ppm did it give?
**A.** ≥ 90%

**Q.** Which inhibition at 0.01 ppm does the source give for CC(COc1cc(C#N)ccc1C(F)(F)F)(NC(=O)c1ccc(SC(F)(F)F)cc1)C(N)=S (stereo not drawn) [Compound 5] here?
**A.** ≥ 90%

**Q.** How did the inhibition at 0.01 ppm turn out when CC(COc1cc(C#N)ccc1C(F)(F)F)(NC(=O)c1ccc(OC(F)(F)F)cc1)C(N)=S (stereo not drawn) [Compound 7, N-[2-(5-Cyano-2-trifluoromethylphenoxy)-1-methyl-1-thiocarbamoyl-ethyl]-4-trifluoromethoxybenzamide] was run?
**A.** ≥ 90%

**Q.** CC(Cn1nc2c(Cl)cc(Cl)c(Cl)c2n1)(NC(=O)c1ccc(SC(F)(F)F)cc1)C(N)=S (stereo not drawn) [Compound 2] was tested. Which inhibition at 0.01 ppm did it give?
**A.** ≥ 90%

Same assay, conditions: 96 h, test concentration 0.15 ppm, 4 days assessment, 27° C., read-out: motility inhibition

**Q.** Which inhibition at 0.15 ppm does the source give for CC(COc1cc(C(N)=S)ccc1C(F)(F)F)(NC(=O)c1ccc(SC(F)(F)F)cc1)C(N)=S (stereo not drawn) [Compound 6] here?
**A.** ≥ 90%

**Q.** Which inhibition at 0.15 ppm does the source give for CC(COc1ccc(C#N)cc1C(F)(F)F)(NC(=O)c1ccc(OC(F)(F)F)cc1)C(N)=S (stereo not drawn) [Compound 3, N-[2-(4-Cyano-2-trifluoromethylphenoxy)-1-methyl-1-thiocarbamoyl-ethyl]-4-trifluoromethoxybenzamide] here?
**A.** ≥ 90%

**Q.** Which inhibition at 0.15 ppm does the source give for CC(COc1ccc(C(N)=S)cc1C(F)(F)F)(NC(=O)c1ccc(OC(F)(F)F)cc1)C(N)=S (stereo not drawn) [Compound 4, N-[1-Methyl-1-thiocarbamoyl-2-(4-thiocarbamoyl-2-trifluoromethylphenoxy)-ethyl]-4-trifluoromethoxybenzamide] here?
**A.** ≥ 90%

**Q.** Which inhibition at 0.15 ppm does the source give for CC(COc1cc(C(N)=S)ccc1C(F)(F)F)(NC(=O)c1ccc(OC(F)(F)F)cc1)C(N)=S (stereo not drawn) [Compound 8] here?
**A.** ≥ 90%

System: Haemonchus contortus
Test: Method B: screening against Haemonchus contortus in vivo on Mongolian jirds (Meriones unguiculatus)
Details: oral gavage, dose as low as 1 or 10 mg/kg, necropsy 3 days after treatment, vs placebo control group
Procedure: Method B: Screening Method to Test Activity of Compounds Against Haemonchus contortus in Vivo on Mongolian Jirds (Meriones unguiculatus). Mongolian jirds, at least five weeks old, were immunosuppressed and artificially infected with ca. 1000 ensheathed Haemonchus contortus third instar larvae. Six days after infection, the jirds were treated by oral gavage with the test compounds, dissolved in a mixture of 2 parts DMSO and 1 part polyethylene glycol (PEG400), at doses of 100 mg/kg and 10 mg/kg. Jirds treated only with the placebo (2 parts DMSO and 1 part PEG400) served as controls. On day 9 (3 days after treatment) the jirds were euthanized and necropsied for recovery of parasites from the stomach. Efficacy was calculated as the average % reduction in the number of worms in each test group compared with the average number of worms from the control group. […] Compound number 1, provided at least 95% reduction in nematode infestation at a dose as low as 1 or 10 mg/kg.

**Q.** How did the “reduction in nematode infestation” value turn out when CC(Cn1nc2c(Cl)cc(Cl)c(Cl)c2n1)(NC(=O)c1ccc(OC(F)(F)F)cc1)C(N)=S (stereo not drawn) [Compound 1, N-[1-Methyl-1-thiocarbamoyl-2-(4,5,7-trichloro-2H-benzotriazol-2-yl)-ethyl]-4-trifluoromethoxybenzamide] was run?
**A.** at least 95%
